Data taken from patent publication US10213415B2, “Compounds as opioid receptor modulators” (JANSSEN PHARMACEUTICA NV, priority 2004, dated 2019).

Experiments:
delta opioid receptor = target: T1, delta opioid receptor (Rattus norvegicus, UniProt P33533); assay: Rat Brain Delta Opioid Receptor Binding Assay ([3H]DPDPE); details: rat forebrain membranes, margin of error 10-20%, read-out: r Ki δ
T1 construct: from tissue; host or cells: forebrain of male Wistar rats
Experimental: (§1) Male, Wistar rats (150-250 g, VAF, Charles River, Kingston, N.Y.) are killed by cervical dislocation, and their brains removed and placed immediately in ice cold Tris HCl buffer (50 mM, pH 7.4). The forebrains are separated from the remainder of the brain by a coronal transection, beginning dorsally at the colliculi and passing ventrally through the midbrain-pontine junction. After dissection, the forebrains are homogenized in Tris buffer in a Teflon® glass homogenizer. The homogenate is diluted to a concentration of 1 g of forebrain tissue per 80 mL Tris and centrifuged at 39,000×g for 10 min. The pellet is resuspended in the same volume of Tris buffer containing 5 mM MgCl2 with several brief pulses from a Polytron homogenizer. This particulate preparation is used for the delta opioid binding assays. Following incubation with the delta selective peptide ligand ˜4 nM [^3H]DPDPE at 25° C. for 2.5 h in a 96-well plate with total volume of 1 mL, the plate contents are filtered through Wallac filtermat B sheets on a Tomtec 96-well harvester. The filters are rinsed three times with 2 mL of 10 mM HEPES (pH 7.4), and dried in a microwave oven 2 min twice. To each sample area 2×50 μL of Betaplate Scint scintillation fluid (LKB) is added and analyzed on a LKB (Wallac) 1205 BetaPlate liquid scintillation counter.
(§2) The data are used to calculate either the % inhibition compared to control binding (when only a single concentration of test compound is evaluated) or a Ki value (when a range of concentrations is tested). % inhibition is calculated as: [(total dpm−test compound dpm)/(total dpm−nonspecific dpm)]*100. Kd and Ki values were calculated using GraphPad PRISM data analysis program.

[1] = target: T2, mu opioid receptor (CHO-hMOR cell membranes) (Homo sapiens, UniProt P35372); assay: Mu Opioid Receptor Functional Assay: [35S]GTPγS Binding in CHO-hMOR Cell Membranes, Versions 1 and 2; type: biochemical; details: for MOR GTP binding assay_v1 (% I): version 1, % inhibition of agonist-stimulated GTPγS binding; for MOR GTP assay_v1 % of Basal: version 1, basal binding = 100%
T2 construct: purchased Receptor Biology, Inc. (Baltimore, Md.); host or cells: CHO cells (recombinant expression)
Experimental: CHO-hMOR cell membranes were purchased from Receptor Biology, Inc. (Baltimore, Md.). About 10 mg/ml of membrane protein was suspended in 10 mM TRIS-HCl pH 7.2, 2 mM EDTA, 10% sucrose, and the suspension kept on ice. One ml of membranes was added to 15 ml cold binding assay buffer containing 50 mM HEPES, pH 7.6, 5 mM MgCl2, 100 mM NaCl, 1 mM DTT and 1 mM EDTA. The membrane suspension was homogenized with a Polytron and centrifuged at 3,000 rpm for 10 min. The supernatant was then centrifuged at 18,000 rpm for 20 min. The pellet was resuspended in 10 ml assay buffer with a Polytron.
The membranes were preincubated with wheat germ agglutinin coated SPA beads (Amersham) at 25° C. for 45 min in the assay buffer. The SPA bead (5 mg/ml) coupled membranes (10 μg/ml) were then incubated with 0.5 nM [^35S]GTPγS in the assay buffer. […] A range of concentrations of receptor agonists was used to stimulate [^35S]GTPγS binding. Both basal and non-specific binding was tested in the absence of agonist; non-specific binding determination included 10 μM unlabeled GTPγS.
Compounds were tested for function as antagonists by evaluating their potential to inhibit agonist-stimulated GTPγS binding. Radioactivity was quantified on a Packard TopCount. The following parameters were calculated:
[formula] % Inhibition=(% stimulation by 1 μM SNC80−% stimulation by 1 μM SNC80 in presence of test compound)×100/(% Stimulation by 1 μM SNC80−100)
EC50 values were calculated using GraphPad Prism.

mu opioid receptor = target: T3, mu opioid receptor (Rattus norvegicus, UniProt P33535); assay: Rat Brain Mu Opioid Receptor Binding Assay (and Version 2a, [3H]DAMGO); details: rat forebrain membranes, margin of error 10-20%, read-out: r Ki μ
T3 construct: from tissue; host or cells: forebrain of male Wistar rats
Experimental: as §1, with “mu-opioid” for “delta opioid”, “Following incubation with the delta selective peptide ligand ˜4 nM [^3H]DPDPE at 25° C. for 2.5 h in a 96-well plate with total volume of 1 mL, the plate contents are filtered through Wallac filtermat B sheets on a Tomtec 96-well harvester.” left out, “(pH7.4),” for “(pH 7.4),”
as §2, with “dpm-test” for “dpm−test”, “dpm-nonspecific” for “dpm−nonspecific”
Male, Wistar rats (150-250 g, VAF, Charles River, Kingston, N.Y.) were killed by cervical dislocation, and their brains removed and placed immediately in ice-cold Tris HCl buffer (50 mM, pH 7.4). The forebrains were separated from the remainder of the brain by a coronal transection, beginning dorsally at the colliculi and passing ventrally through the midbrain-pontine junction. After dissection, the forebrains were homogenized in Tris buffer in a Teflon®-glass homogenizer. The homogenate was diluted to a concentration of 1 g of forebrain tissue per 80 mL Tris and centrifuged at 39,000×g for 10 min. The pellet was resuspended in the same volume of Tris buffer containing 5 mM MgCl2 with several brief pulses from a Polytron homogenizer. This particulate preparation was used for the mu opioid binding assay. Following incubation with 0.8 nM of the mu selective ligand [^3H]DAMGO at 25° C. for 2.5 h in a 96-well plate with total 1 mL, the plate contents were filtered through Wallac filtermat B sheets on a Tomtec 96-well harvester. The filters were rinsed three times with 2 mL of 10 mM HEPES (pH 7.4), and dried in a microwave oven. To each sample area, Betaplate Scint scintillation fluid (LKB) was added and the resulting radioactivity quantified on a LKB (Wallac) 1205 BetaPlate liquid scintillation counter. Kd and Ki values were calculated using the GraphPad PRISM data analysis program.

human mu opioid receptor = target: T4, human mu opioid receptor (Homo sapiens, UniProt P35372); assay: Human Mu Opioid Receptor Binding Assay (CHO membranes, 3H-Damgo); details: read-out: hKi μ
T4 construct: purchased Perkin Elmer RBHOMM400UA; host or cells: Chinese Hamster Ovary cells (recombinant expression)
Summary of the method: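 Membranes from CHO cells expressing human mu opioid receptor, 300 μg/mL, in 50 mM Tris pH 7.5, 5 mM MgCl2. Incubated with compound and ³H-Damgo (3.6 nM before mixing) for 2 h at room temperature, filtered, counted by scintillation. Nonspecific binding with 1 μM unlabelled Damgo.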

T3 sequence (P33535 whole entry): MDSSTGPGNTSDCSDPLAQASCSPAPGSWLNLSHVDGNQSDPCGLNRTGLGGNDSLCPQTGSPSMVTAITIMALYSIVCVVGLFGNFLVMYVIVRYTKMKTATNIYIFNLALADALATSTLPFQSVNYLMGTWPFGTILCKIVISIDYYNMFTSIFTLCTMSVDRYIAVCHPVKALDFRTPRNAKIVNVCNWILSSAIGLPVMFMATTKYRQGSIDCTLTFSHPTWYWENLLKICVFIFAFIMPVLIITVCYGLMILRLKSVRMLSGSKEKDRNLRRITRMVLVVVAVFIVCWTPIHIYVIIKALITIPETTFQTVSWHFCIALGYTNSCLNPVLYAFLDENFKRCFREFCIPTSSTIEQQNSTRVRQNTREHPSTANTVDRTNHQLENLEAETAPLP
T1 sequence (P33533 whole entry): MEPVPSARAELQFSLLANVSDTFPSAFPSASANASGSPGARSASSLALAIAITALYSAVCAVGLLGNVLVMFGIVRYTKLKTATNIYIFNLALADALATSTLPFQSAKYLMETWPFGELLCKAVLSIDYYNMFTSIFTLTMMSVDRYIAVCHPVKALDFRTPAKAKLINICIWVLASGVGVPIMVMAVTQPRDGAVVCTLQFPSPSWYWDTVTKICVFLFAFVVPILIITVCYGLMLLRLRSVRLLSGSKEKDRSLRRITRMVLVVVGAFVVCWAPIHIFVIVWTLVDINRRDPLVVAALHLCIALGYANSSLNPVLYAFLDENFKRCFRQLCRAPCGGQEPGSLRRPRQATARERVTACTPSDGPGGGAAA
T4 sequence (P35372 whole entry): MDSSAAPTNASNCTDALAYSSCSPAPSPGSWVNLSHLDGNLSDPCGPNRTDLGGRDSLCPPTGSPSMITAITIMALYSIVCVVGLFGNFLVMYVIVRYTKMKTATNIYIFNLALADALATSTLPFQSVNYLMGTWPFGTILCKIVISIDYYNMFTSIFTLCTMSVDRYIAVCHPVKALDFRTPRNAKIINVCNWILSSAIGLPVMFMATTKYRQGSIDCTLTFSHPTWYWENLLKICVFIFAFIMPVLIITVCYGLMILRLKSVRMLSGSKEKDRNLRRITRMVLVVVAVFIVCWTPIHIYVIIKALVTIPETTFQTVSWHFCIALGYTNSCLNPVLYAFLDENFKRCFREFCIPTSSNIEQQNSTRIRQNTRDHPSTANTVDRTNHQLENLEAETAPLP
T2 sequence (P35372 whole entry): as above

Row | Compound | Ki (delta opioid receptor) | MOR GTP binding assay_v1 (% I) [1] | MOR GTP assay_v1 % of Basal [1] | Ki (mu opioid receptor) | Ki (human mu opioid receptor)
1 | Cc1cc(O)cc(C)c1C[C@H](N)C(=O)N[C@@H](Cc1cccc(C#N)c1)c1nc(-c2ccccc2)c[nH]1 [Cpd 173] | 5070 nM | 85.00% | 147.00% | 45.7 nM | 
2 | Cc1cc(O)cc(C)c1C[C@H](N)C(=O)N[C@@H](COCc1ccccc1)c1nc(-c2ccccc2)c[nH]1 [Cpd 175] | 166 nM | 53.00% | 471.00% | 3.6 nM | 
3 | Cc1cc(O)cc(C)c1C[C@H](N)C(=O)N[C@@H](Cc1ccccc1)c1nc(-c2ccccc2)c[nH]1 [Cpd 177] | 255 nM | 23.00% | 625.00% | 13.4 nM | 
4 | CCNC(=O)c1cc(C)c(C[C@H](N)C(=O)N(C)[C@@H](C)c2nc(-c3ccccc3)c[nH]2)c(C)c1 [Cpd 181] | 341 nM | 1.00% |  | 1.3 nM | 
5 | CCNC(=O)c1cc(C)c(C[C@H](N)C(=O)N(C)[C@H](C)c2nc(-c3ccccc3)c[nH]2)c(C)c1 [Cpd 182] | 1860 nM | 6.00% |  | 7 nM | 
6 | Cc1cc(O)cc(C)c1C[C@H](N)C(=O)N[C@H](C)c1nc(-c2ccccc2)c[nH]1 [Cpd 208] | 33 nM | 1.00% | 475.00% | 1.3 nM | 1.2 nM
7 | Cc1cc(O)cc(C)c1C[C@H](N)C(=O)N[C@@H](C)c1nc(-c2ccccc2)c[nH]1 [Cpd 209] | 708 nM | 10.00% | 295.00% | 17 nM | 23 nM
8 | C[C@H](c1nc(-c2ccccc2)c[nH]1)N(C)C(=O)[C@@H](N)Cc1ccc(O)cc1 [Cpd 210] | 1860 nM | 10.00% | 414.00% | 420 nM | 0.29 nM
9 | C[C@@H](c1nc(-c2ccccc2)c[nH]1)N(C)C(=O)[C@@H](N)Cc1ccc(O)cc1 [Cpd 211] | 180 nM | 10.00% | 371.00% | 5.9 nM | 
10 | Cc1cc(O)cc(C)c1C[C@H](N)C(=O)N(Cc1ccccc1)[C@H](C)c1nc(-c2ccccc2)c[nH]1 [Cpd 220] | 6920 nM |  |  | 157 nM | 377 nM
11 | CC(C)N(C(=O)[C@@H](N)Cc1ccc(O)cc1)[C@H](C)c1nc(-c2ccccc2)c[nH]1 [Cpd 222] | 394 nM |  |  | 91.2 nM | 185 nM
12 | CN[C@@H](Cc1ccc(O)cc1)C(=O)N(Cc1ccc(OC)c(C(=O)O)c1)[C@@H](C)c1nc(-c2ccccc2)c[nH]1 [Cpd 262] | 17.5 nM |  |  | 1.1 nM | 3.24 nM
